This note sets out measurements from BindingDB's records for patent US20240010684 (Bayer Aktiengesellschaft, 2024).

Where a SMILES comes first, the peptide text is derived from it. Bridges are numbered along the chain shown (N, C = ends). [ ]: non-standard residue; d: D form. Oic = O=C(O)[C@@H]1C[C@@H]2CCCC[C@@H]2N1; Pen = CC(C)(S)[C@H](N)C(=O)O

Experiment [1] addresses Mannan-binding lectin serine protease 2 (Homo sapiens, UniProt O00187). Nature of the experiment: Biochemical Human MASP2 Assay. The protocol:
Recombinant human MASP2 enzyme produced in the HEK 293 cells was diluted in the reaction buffer (50 mM HEPES pH 8,0; 100 mM NaCl; 0,01% CHAPS; 0.5 mM Gluthathione) to the concentration of 20 nM and 25 μl was transferred into each single well of 384-well white microtiter plate (Greiner Bio One 781075). 1 μl of the inhibitor compound solution (dissolved in DMSO, at the corresponding concentration) or pure DMSO as a control was added to the same wells. The enzymatic reaction was initiated by addition of 25 μl of 60 μM solution of the FRET substrate DABCYL-[…]-Glu(EDANS) NH2; (Dabcyl-4-((4-(dimethylamino)phenyl)azo)benzoic acid; Edans-5-[(2-Aminoethyl) amino]naphthalene-1-sulfonyl; custom synthesis by Jerini Peptide Technologies, Berlin) in the reaction buffer. The microtiter plate was incubated for 60-120 min at the temperature of 32 C.

Experiment [2] concerns the target Mannan-binding lectin serine protease 2 (Rattus norvegicus, UniProt Q9JJS8). Nature of the experiment: Biochemical Rat MASP2 Assay. The method, then: 1 μl of the inhibitor compound solution (dissolved in DMSO, at the corresponding concentration) or pure DMSO as a control was added to the same wells. The enzymatic reaction was initiated by addition of 25 μl of 30 μM solution of the FRET substrate Abz-IEGRTSED-(Lys)Dnp-NH2; (ABZ-2-aminobenzoyl; DNP-2,4-dinitrophenyl; custom synthesis by Jerini Peptide Technologies, Berlin) in the reaction buffer. The microtiter plate was incubated for 60-120 min at the temperature of 32 C. The increase of fluorescence intensity was measured in appropriate fluorescence plate reader (e.g. TECAN Ultra) using excitation wavelength of 320 nm and emission wavelength of 420 nm. IC50 values were calculated from percentage of inhibition of rat […] activity as a function of test compound concentration.

Experiment [3] addresses T1, Mannan-binding lectin serine protease 1 (Homo sapiens, UniProt P48740).
T1 sequence (P48740 whole entry): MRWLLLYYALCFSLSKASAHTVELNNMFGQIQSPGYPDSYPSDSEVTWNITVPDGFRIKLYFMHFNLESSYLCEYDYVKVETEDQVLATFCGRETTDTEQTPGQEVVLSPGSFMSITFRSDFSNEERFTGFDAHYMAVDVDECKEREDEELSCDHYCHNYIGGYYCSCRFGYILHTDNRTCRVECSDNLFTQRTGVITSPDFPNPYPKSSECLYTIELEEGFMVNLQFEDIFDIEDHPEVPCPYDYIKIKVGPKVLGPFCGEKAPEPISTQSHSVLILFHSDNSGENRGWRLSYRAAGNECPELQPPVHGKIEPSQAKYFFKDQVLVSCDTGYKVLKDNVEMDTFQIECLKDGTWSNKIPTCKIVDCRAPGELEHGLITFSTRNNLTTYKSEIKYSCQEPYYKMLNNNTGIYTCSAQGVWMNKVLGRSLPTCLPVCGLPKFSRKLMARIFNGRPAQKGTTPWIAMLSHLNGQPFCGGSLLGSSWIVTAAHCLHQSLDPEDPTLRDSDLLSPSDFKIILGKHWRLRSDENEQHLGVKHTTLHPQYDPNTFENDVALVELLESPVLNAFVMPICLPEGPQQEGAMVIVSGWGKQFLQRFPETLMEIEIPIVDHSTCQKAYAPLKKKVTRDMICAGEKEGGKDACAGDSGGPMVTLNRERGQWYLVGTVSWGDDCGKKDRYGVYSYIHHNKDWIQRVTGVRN
Nature of the experiment: Biochemical Human MASP1 Assay. The protocol: Recombinant human MASP1 enzyme produced in the HEK 293 cells was diluted in the reaction buffer (50 mM HEPES pH 8,0; 100 mM NaCl; 0,01% CHAPS; 0.5 mM Gluthathione) to the concentration of 20 nM and 25 μl was transferred into each single well of 384-well white microtiter plate (Greiner Bio One 781075). 1 μl of the inhibitor compound solution (dissolved in DMSO, at the corresponding concentration) or pure DMSO as a control was added to the same wells. The enzymatic reaction was initiated by addition of 25 μl of 20 μM solution of the FRET substrate ABZ-[…]-Lys (Dnp)-NH2; (ABZ-2-aminobenzoyl; DNP 2,4-dinitrophenyl; custom synthesis by Jerini Peptide Technologies, Berlin) in the reaction buffer. The microtiter plate was incubated for 60-120 min at the temperature of 32 C. The increase of fluorescence intensity was measured in appropriate fluorescence plate reader (e.g. TECAN Ultra) using excitation wavelength of 320 nm and emission wavelength of 420 nm. IC50 values were calculated from percentage of inhibition of human MASP1 activity as a function of test compound concentration.

In experiment [4] the target is T2, Mannan-binding lectin serine protease 1 (Rattus norvegicus, UniProt Q8CHN8).
T2 sequence (Q8CHN8 whole entry): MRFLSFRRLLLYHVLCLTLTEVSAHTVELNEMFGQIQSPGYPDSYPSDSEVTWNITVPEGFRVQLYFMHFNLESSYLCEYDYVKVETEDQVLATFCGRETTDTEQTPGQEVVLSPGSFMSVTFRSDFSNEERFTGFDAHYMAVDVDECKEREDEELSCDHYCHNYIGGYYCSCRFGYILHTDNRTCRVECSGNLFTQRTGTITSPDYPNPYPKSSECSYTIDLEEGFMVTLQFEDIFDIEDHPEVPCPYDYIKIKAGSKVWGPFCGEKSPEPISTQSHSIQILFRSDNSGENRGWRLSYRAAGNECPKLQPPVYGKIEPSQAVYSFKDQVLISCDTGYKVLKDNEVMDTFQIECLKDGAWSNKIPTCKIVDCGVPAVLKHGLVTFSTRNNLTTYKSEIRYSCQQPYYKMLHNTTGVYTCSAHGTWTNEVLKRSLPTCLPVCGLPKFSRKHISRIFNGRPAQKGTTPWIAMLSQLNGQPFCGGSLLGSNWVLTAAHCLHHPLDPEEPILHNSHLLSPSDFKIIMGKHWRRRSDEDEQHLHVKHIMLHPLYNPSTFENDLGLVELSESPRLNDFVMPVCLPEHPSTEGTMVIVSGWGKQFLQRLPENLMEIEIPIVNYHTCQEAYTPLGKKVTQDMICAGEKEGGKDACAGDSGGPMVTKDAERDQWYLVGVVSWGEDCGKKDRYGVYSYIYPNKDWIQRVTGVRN
Nature of the experiment: Biochemical Rat MASP1 Assay. The method, then:
Recombinant […] produced in the HEK 293 cells was diluted in the reaction buffer (50 mM HEPES pH 8,0; 100 mM NaCl; 0,01% CHAPS; 0.5 mM Gluthathione) to the concentration of 4 nM and 25 μl was transferred into each single well of 384-well white microtiter plate (Greiner Bio One 781075). 1 μl of the inhibitor compound solution (dissolved in DMSO, at the corresponding concentration) or pure DMSO as a control was added to the same wells. The enzymatic reaction was initiated by addition of 25 μl of 40 μM solution of the FRET substrate Dabcyl-[…]-Glu(Edans)-NH2; (Dabcyl-4-((4-(dimethylamino)phenyl)azo)benzoic acid; Edans-5-[(2-Aminoethyl) amino]naphthalene-1-sulfonyl; custom synthesis by Jerini Peptide Technologies, Berlin) in the reaction buffer. The microtiter plate was incubated for 60-120 min at the temperature of 32 C. The increase of fluorescence intensity was measured in appropriate fluorescence plate reader (e.g. TECAN Ultra) using excitation wavelength of 340 nm and emission wavelength of 490 nm. IC50 values were calculated from percentage of inhibition of rat […] activity as a function of test compound concentration.

Chain of Mannan-binding lectin serine protease 2 (Homo sapiens, UniProt O00187) (O00187 16-444 limits assumed): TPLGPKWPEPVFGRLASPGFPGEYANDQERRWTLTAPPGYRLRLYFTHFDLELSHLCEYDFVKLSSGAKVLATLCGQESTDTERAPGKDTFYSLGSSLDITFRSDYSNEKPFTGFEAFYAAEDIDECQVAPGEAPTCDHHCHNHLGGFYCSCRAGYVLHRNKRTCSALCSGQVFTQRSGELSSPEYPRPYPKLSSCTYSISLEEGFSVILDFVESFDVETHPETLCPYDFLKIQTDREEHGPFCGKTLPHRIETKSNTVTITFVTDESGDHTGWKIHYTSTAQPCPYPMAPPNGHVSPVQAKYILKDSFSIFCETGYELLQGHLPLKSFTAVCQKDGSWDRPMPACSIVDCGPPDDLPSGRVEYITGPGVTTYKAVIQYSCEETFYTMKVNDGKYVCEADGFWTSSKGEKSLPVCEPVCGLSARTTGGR
Chain of Mannan-binding lectin serine protease 2 (Homo sapiens, UniProt O00187) (O00187 445-686 limits assumed): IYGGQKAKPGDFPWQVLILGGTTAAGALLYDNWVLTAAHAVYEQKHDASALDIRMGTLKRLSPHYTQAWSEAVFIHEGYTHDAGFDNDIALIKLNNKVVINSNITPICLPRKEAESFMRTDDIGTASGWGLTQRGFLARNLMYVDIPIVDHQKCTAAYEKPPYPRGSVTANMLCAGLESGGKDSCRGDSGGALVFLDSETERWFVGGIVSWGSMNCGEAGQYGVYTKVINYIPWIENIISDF
Chain of Mannan-binding lectin serine protease 2 (Rattus norvegicus, UniProt Q9JJS8) (Q9JJS8 20-443 limits assumed): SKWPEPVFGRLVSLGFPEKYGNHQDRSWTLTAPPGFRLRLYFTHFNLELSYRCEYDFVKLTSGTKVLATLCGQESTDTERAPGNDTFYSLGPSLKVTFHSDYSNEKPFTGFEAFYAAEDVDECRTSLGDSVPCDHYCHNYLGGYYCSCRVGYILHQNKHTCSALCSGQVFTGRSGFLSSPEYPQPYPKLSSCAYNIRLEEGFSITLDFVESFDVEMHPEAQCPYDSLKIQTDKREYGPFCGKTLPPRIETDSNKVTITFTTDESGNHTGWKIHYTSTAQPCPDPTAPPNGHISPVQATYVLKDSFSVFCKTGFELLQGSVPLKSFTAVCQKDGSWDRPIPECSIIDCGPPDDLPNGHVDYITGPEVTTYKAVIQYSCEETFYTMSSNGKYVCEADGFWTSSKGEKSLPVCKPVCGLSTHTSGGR
Chain of Mannan-binding lectin serine protease 2 (Rattus norvegicus, UniProt Q9JJS8) (Q9JJS8 444-685 limits assumed): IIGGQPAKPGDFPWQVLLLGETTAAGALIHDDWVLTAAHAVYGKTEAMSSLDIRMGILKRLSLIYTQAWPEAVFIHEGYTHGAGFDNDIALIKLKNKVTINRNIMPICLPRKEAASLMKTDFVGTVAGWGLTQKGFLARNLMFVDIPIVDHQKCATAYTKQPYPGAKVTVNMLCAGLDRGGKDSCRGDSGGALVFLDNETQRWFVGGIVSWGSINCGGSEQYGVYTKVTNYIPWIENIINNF

Regarding `CC[C@H](C)[C@@H]1NC(=O)CNC(=O)CNC(=O)[C@H](C)NC(=O)[C@H](CC(=O)O)NC(=O)[C@@H]2CCCN2C(=O)[C@H]([C@@H](C)CC)NC(=O)[C@H]2NC(=O)[C@H]([C@@H](C)CC)NC(=O)[C@@H]3C[C@@H]4CCCC[C@@H]4N3C(=O)[C@@H]3CCCN3C(=O)[C@H](CC(C)C)NC(=O)[C@H](CO)NC(=O)[C@H](CCCNC(=N)N)NC(=O)[C@H](CO)NC(=O)[C@H](CSSC2(C)C)NC1=O` [US20240010684, Ex. No 92] (cyclo(AGGICSRSLP[Oic]I[Pen]IPD); disulfide 5-13), the IC50 in experiment [1] amounted to 77 nM; in experiment [2], 41 nM; in experiment [3] it was 8.4 nM; in experiment [4], 170 nM.
As to `CC[C@H](C)[C@@H]1NC(=O)CNC(=O)CNC(=O)[C@H](C)NC(=O)[C@@H](CC(=O)O)NC(=O)[C@@H]2CCCN2C(=O)[C@H]([C@@H](C)CC)NC(=O)[C@H]2NC(=O)[C@H]([C@@H](C)CC)NC(=O)[C@@H]3C[C@@H]4CCCC[C@@H]4N3C(=O)[C@@H]3CCCN3C(=O)[C@H](CC(C)C)NC(=O)[C@H](CO)NC(=O)[C@H](CCCNC(=N)N)NC(=O)[C@H](CO)NC(=O)[C@H](CSSC2(C)C)NC1=O` [US20240010684, Ex. No 98] (cyclo(AGGICSRSLP[Oic]I[Pen]IP[dD]); disulfide 5-13), the IC50 in experiment [1] was found to be 160 nM; in experiment [3], 19 nM; in experiment [4] it was 170 nM.
As for `CC[C@H](C)[C@@H]1NC(=O)[C@@H]2CCCN2C(=O)[C@@H]2CCCN2C(=O)[C@H]([C@@H](C)CC)NC(=O)[C@H](CO)NC(=O)[C@H](CCCCN)NC(=O)[C@H]([C@@H](C)O)NC(=O)[C@@H]2CSSC[C@H](NC1=O)C(=O)N[C@@H](Cc1ccccc1)C(=O)N1CCC[C@H]1C(=O)N[C@@H](CC(=O)O)C(=O)NCC(=O)N[C@@H](CCCNC(=N)N)C(=O)N2` [US20240010684, Ref. No 2], the values for the IC50 in experiment [1], in experiment [2] and in experiment [3] were more than 3000 nM, 1000 nM and more than 3000 nM, respectively.
